Measurements taken from the NIST ThermoML archive (doi:10.1021/je100765j).

Experiment: xn = mol fraction of the nth substance listed
Conditions: 101 kPa, Liquid; for speed of sound: Sing-around technique in a fixed-path interferometer

CCCCCl [1-chlorobutane] + CC(C)OC(C)C
Conditions | mass density [kg/m3] | speed of sound [m/s]
283.15 K, x1 = 0.0466 | 740.095 | 1070.9
283.15 K, x1 = 0.0991 | 747.139 | 1076.6
283.15 K, x1 = 0.1918 | 759.833 | 1087
283.15 K, x1 = 0.32 | 778.726 | 1101.5
283.15 K, x1 = 0.4199 | 793.339 | 1112.3
283.15 K, x1 = 0.516 | 808.586 | 1123.3
283.15 K, x1 = 0.623 | 826.434 | 1135.5
283.15 K, x1 = 0.7154 | 842.63 | 1146.3
283.15 K, x1 = 0.8157 | 861.003 | 1158.2
283.15 K, x1 = 0.9098 | 879.099 | 1169.3
283.15 K, x1 = 0.9559 | 888.28 | 1174.9
288.15 K, x1 = 0.0466 | 734.99 | 1048.6
288.15 K, x1 = 0.0991 | 741.966 | 1054.3
288.15 K, x1 = 0.1918 | 754.629 | 1064.7
288.15 K, x1 = 0.32 | 773.471 | 1079.4
288.15 K, x1 = 0.4199 | 788.055 | 1090.3
288.15 K, x1 = 0.516 | 803.274 | 1101.5
288.15 K, x1 = 0.623 | 821.073 | 1114
288.15 K, x1 = 0.7154 | 837.246 | 1125
288.15 K, x1 = 0.8157 | 855.588 | 1137
288.15 K, x1 = 0.9098 | 873.635 | 1148.4
288.15 K, x1 = 0.9559 | 882.81 | 1154.2
293.15 K, x1 = 0.0466 | 729.792 | 1026.2
293.15 K, x1 = 0.0991 | 736.75 | 1032
293.15 K, x1 = 0.1918 | 749.383 | 1042.5
293.15 K, x1 = 0.32 | 768.192 | 1057.3
293.15 K, x1 = 0.4199 | 782.731 | 1068.4
293.15 K, x1 = 0.516 | 797.924 | 1079.7
293.15 K, x1 = 0.623 | 815.68 | 1092.4
293.15 K, x1 = 0.7154 | 831.821 | 1103.6
293.15 K, x1 = 0.8157 | 850.133 | 1115.9
293.15 K, x1 = 0.9098 | 868.142 | 1127.6
293.15 K, x1 = 0.9559 | 877.303 | 1133.4
298.15 K, x1 = 0.0466 | 724.56 | 1003.8
298.15 K, x1 = 0.0991 | 731.492 | 1009.7
298.15 K, x1 = 0.1918 | 744.091 | 1020.2
298.15 K, x1 = 0.32 | 762.854 | 1035.2
298.15 K, x1 = 0.4199 | 777.351 | 1046.6
298.15 K, x1 = 0.516 | 792.506 | 1058
298.15 K, x1 = 0.623 | 810.177 | 1071
298.15 K, x1 = 0.7154 | 826.321 | 1082.3
298.15 K, x1 = 0.8157 | 844.587 | 1094.8
298.15 K, x1 = 0.9098 | 862.556 | 1106.6
298.15 K, x1 = 0.9559 | 871.691 | 1112.7
303.15 K, x1 = 0.0466 | 719.283 | 981.56
303.15 K, x1 = 0.0991 | 726.204 | 987.54
303.15 K, x1 = 0.1918 | 738.777 | 998.37
303.15 K, x1 = 0.32 | 757.526 | 1013.6
303.15 K, x1 = 0.4199 | 771.984 | 1024.8
303.15 K, x1 = 0.516 | 787.119 | 1036.5
303.15 K, x1 = 0.623 | 804.761 | 1049.6
303.15 K, x1 = 0.7154 | 820.882 | 1061.1
303.15 K, x1 = 0.8157 | 839.124 | 1073.8
303.15 K, x1 = 0.9098 | 857.076 | 1085.9
303.15 K, x1 = 0.9559 | 866.204 | 1092
308.15 K, x1 = 0.0466 | 713.967 | 959.5
308.15 K, x1 = 0.0991 | 720.87 | 965.54
308.15 K, x1 = 0.1918 | 733.414 | 976.43
308.15 K, x1 = 0.32 | 752.126 | 991.71
308.15 K, x1 = 0.4199 | 766.553 | 1003.3
308.15 K, x1 = 0.516 | 781.656 | 1015
308.15 K, x1 = 0.623 | 799.266 | 1028.4
308.15 K, x1 = 0.7154 | 815.358 | 1040.1
308.15 K, x1 = 0.8157 | 833.567 | 1053
308.15 K, x1 = 0.9098 | 851.486 | 1065.3
308.15 K, x1 = 0.9559 | 860.595 | 1071.5
313.15 K, x1 = 0.0466 | 708.604 | 937.74
313.15 K, x1 = 0.0991 | 715.486 | 943.72
313.15 K, x1 = 0.1918 | 728.002 | 954.72
313.15 K, x1 = 0.32 | 746.649 | 970.22
313.15 K, x1 = 0.4199 | 761.063 | 981.83
313.15 K, x1 = 0.516 | 776.136 | 993.77
313.15 K, x1 = 0.623 | 793.704 | 1007.3
313.15 K, x1 = 0.7154 | 809.769 | 1019.1
313.15 K, x1 = 0.8157 | 827.935 | 1032.2
313.15 K, x1 = 0.9098 | 845.816 | 1044.8
313.15 K, x1 = 0.9559 | 854.913 | 1051.1

CC(C)(C)Cl [2-chloro-2-methylpropane] + CC(C)OC(C)C
Conditions | mass density [kg/m3] | speed of sound [m/s]
283.15 K, x1 = 0.049 | 738.51 | 1064.9
283.15 K, x1 = 0.0996 | 743.477 | 1064.1
283.15 K, x1 = 0.1991 | 753.625 | 1062.7
283.15 K, x1 = 0.3212 | 766.738 | 1060.7
283.15 K, x1 = 0.4189 | 777.752 | 1059.1
283.15 K, x1 = 0.5148 | 789.053 | 1057.4
283.15 K, x1 = 0.6213 | 802.211 | 1055.4
283.15 K, x1 = 0.7152 | 814.386 | 1053.5
283.15 K, x1 = 0.8138 | 827.84 | 1051.4
283.15 K, x1 = 0.9079 | 841.342 | 1049.2
283.15 K, x1 = 0.9552 | 848.393 | 1048.1
288.15 K, x1 = 0.049 | 733.338 | 1042.5
288.15 K, x1 = 0.0996 | 738.271 | 1041.8
288.15 K, x1 = 0.1991 | 748.35 | 1040.4
288.15 K, x1 = 0.3212 | 761.373 | 1038.5
288.15 K, x1 = 0.4189 | 772.305 | 1037
288.15 K, x1 = 0.5148 | 783.527 | 1035.4
288.15 K, x1 = 0.6213 | 796.59 | 1033.5
288.15 K, x1 = 0.7152 | 808.683 | 1031.8
288.15 K, x1 = 0.8138 | 822.038 | 1029.8
288.15 K, x1 = 0.9079 | 835.444 | 1027.7
288.15 K, x1 = 0.9552 | 842.442 | 1026.6
293.15 K, x1 = 0.049 | 728.121 | 1020
293.15 K, x1 = 0.0996 | 733.024 | 1019.4
293.15 K, x1 = 0.1991 | 743.024 | 1018
293.15 K, x1 = 0.3212 | 755.959 | 1016.3
293.15 K, x1 = 0.4189 | 766.815 | 1014.9
293.15 K, x1 = 0.5148 | 777.959 | 1013.4
293.15 K, x1 = 0.6213 | 790.929 | 1011.6
293.15 K, x1 = 0.7152 | 802.935 | 1010
293.15 K, x1 = 0.8138 | 816.189 | 1008.1
293.15 K, x1 = 0.9079 | 829.491 | 1006.1
293.15 K, x1 = 0.9552 | 836.437 | 1005.1
298.15 K, x1 = 0.049 | 722.867 | 997.71
298.15 K, x1 = 0.0996 | 727.738 | 997.09
298.15 K, x1 = 0.1991 | 737.666 | 995.89
298.15 K, x1 = 0.3212 | 750.506 | 994.32
298.15 K, x1 = 0.4189 | 761.286 | 993.03
298.15 K, x1 = 0.5148 | 772.351 | 991.68
298.15 K, x1 = 0.6213 | 785.228 | 990.11
298.15 K, x1 = 0.7152 | 797.145 | 988.62
298.15 K, x1 = 0.8138 | 810.301 | 986.91
298.15 K, x1 = 0.9079 | 823.502 | 985.13
298.15 K, x1 = 0.9552 | 830.397 | 984.18
303.15 K, x1 = 0.049 | 717.578 | 975.46
303.15 K, x1 = 0.0996 | 722.411 | 974.84
303.15 K, x1 = 0.1991 | 732.264 | 973.65
303.15 K, x1 = 0.3212 | 745.015 | 972.13
303.15 K, x1 = 0.4189 | 755.716 | 970.88
303.15 K, x1 = 0.5148 | 766.702 | 969.59
303.15 K, x1 = 0.6213 | 779.48 | 968.1
303.15 K, x1 = 0.7152 | 791.311 | 966.67
303.15 K, x1 = 0.8138 | 804.371 | 965.04
303.15 K, x1 = 0.9079 | 817.469 | 963.34
303.15 K, x1 = 0.9552 | 824.312 | 962.38
308.15 K, x1 = 0.049 | 712.24 | 953.42
308.15 K, x1 = 0.0996 | 717.041 | 952.84
308.15 K, x1 = 0.1991 | 726.821 | 951.71
308.15 K, x1 = 0.3212 | 739.479 | 950.28
308.15 K, x1 = 0.4189 | 750.102 | 949.13
308.15 K, x1 = 0.5148 | 761.005 | 947.93
308.15 K, x1 = 0.6213 | 773.688 | 946.56
308.15 K, x1 = 0.7152 | 785.433 | 945.25
308.15 K, x1 = 0.8138 | 798.394 | 943.74
308.15 K, x1 = 0.9079 | 811.393 | 942.17
308.15 K, x1 = 0.9552 | 818.179 | 941.27
313.15 K, x1 = 0.049 | 706.86 | 931.51
313.15 K, x1 = 0.0996 | 711.627 | 930.96
313.15 K, x1 = 0.1991 | 721.331 | 929.87
313.15 K, x1 = 0.3212 | 733.893 | 928.52
313.15 K, x1 = 0.4189 | 744.44 | 927.44
313.15 K, x1 = 0.5148 | 755.257 | 926.35
313.15 K, x1 = 0.6213 | 767.848 | 925.1
313.15 K, x1 = 0.7152 | 779.502 | 923.88
313.15 K, x1 = 0.8138 | 792.364 | 922.47
313.15 K, x1 = 0.9079 | 805.264 | 921
313.15 K, x1 = 0.9552 | 811.999 | 920.15
